In BindingDB's records for doi:10.1021/bi990204w (National Institute of Diabetes and Digestive and Kidney …, 1999):
Where a SMILES comes first, the peptide text is derived from it. Bridges are numbered along the chain shown (N, C = ends). [ ]: non-standard residue; d: D form. The star is where a group is joined. dProψ(CH2NH)PheNH2 = NC(=O)[C@H](Cc1ccccc1)NC[C@H]1CCCN1*; 2Nal = N[C@@H](Cc1ccc2ccccc2c1)C(=O)O; d2Nal = N[C@H](Cc1ccc2ccccc2c1)C(=O)O; Hydrocinnamoyl = O=C(CCc1ccccc1)*; pGlu = O=C1CC[C@@H](C(=O)O)N1

Columns and labels:
[1] = molecular target: T1, Bombesin receptor subtype-3 (Homo sapiens, UniProt P32247)
T1 sequence (P32247 whole entry): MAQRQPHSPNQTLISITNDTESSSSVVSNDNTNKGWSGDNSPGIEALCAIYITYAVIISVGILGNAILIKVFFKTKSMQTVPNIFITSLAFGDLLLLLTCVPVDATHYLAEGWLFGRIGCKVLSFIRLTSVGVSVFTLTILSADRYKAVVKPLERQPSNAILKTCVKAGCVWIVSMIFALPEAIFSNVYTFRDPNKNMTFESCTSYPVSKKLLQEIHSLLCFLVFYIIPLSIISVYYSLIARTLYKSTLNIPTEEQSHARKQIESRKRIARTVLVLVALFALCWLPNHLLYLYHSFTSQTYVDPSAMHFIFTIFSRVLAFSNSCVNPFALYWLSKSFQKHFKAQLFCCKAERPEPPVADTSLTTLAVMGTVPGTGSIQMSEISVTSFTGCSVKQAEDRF

[2] = molecular target: Gastrin-releasing peptide receptor (Rattus norvegicus, UniProt P52500)
[3] = molecular target: T2, Neuromedin-B receptor (Rattus norvegicus, UniProt P24053)
T2 sequence (P24053 whole entry): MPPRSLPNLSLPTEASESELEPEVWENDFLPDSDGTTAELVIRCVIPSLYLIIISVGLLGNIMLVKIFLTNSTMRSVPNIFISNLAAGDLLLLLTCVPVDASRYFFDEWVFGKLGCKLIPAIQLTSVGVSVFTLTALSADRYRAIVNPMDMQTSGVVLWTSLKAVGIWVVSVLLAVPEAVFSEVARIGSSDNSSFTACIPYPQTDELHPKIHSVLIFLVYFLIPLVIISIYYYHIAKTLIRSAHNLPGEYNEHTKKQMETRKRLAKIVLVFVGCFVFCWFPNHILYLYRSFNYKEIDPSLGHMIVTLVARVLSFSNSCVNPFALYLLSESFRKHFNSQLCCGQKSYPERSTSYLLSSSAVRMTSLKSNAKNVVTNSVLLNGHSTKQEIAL

Gastrin-releasing peptide receptor, sequence (P52500 whole entry N28S): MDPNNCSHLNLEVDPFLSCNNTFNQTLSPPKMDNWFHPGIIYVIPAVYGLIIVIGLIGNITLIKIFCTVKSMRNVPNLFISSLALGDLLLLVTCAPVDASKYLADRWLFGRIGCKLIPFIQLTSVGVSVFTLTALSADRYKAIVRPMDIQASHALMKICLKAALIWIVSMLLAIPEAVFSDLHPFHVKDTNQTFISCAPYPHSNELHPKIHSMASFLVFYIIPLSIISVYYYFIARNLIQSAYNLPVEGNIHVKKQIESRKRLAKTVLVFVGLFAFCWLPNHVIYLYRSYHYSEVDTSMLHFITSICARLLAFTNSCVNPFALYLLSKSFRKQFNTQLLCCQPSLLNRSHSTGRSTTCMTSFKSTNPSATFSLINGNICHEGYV

Row | Molecule | Ki [1] | Ki [2] | Ki [3]
1 | CC(C)C[C@H](NC(=O)[C@H](Cc1cnc[nH]1)NC(=O)CNC(=O)[C@@H](NC(=O)[C@H](C)NC(=O)[C@H](Cc1c[nH]c2ccccc12)NC(=O)[C@H](CCC(N)=O)NC(=O)[C@H](N)Cc1ccccc1)C(C)C)C(=O)NN [DPhe6-Bn(6-13)hydrazide] | > 10000 nM | 1200 nM | > 10000 nM
2 | CC(C)C[C@H](NC(=O)[C@H](Cc1cnc[nH]1)NC(=O)CNC(=O)[C@@H](NC(=O)[C@H](C)NC(=O)[C@H](Cc1c[nH]c2ccccc12)NC(=O)[C@H](CCC(N)=O)NC(=O)[C@@H](Cc1ccccc1)NC(=O)CNC(=O)[C@H](CC(C)C)NC(=O)[C@H](CCCN=C(N)N)NC(=O)[C@H](CCC(N)=O)NC(=O)[C@@H]1CCC(=O)N1)C(C)C)C(N)=O [DPhe6-Bn(1-13)NH2] | > 10000 nM | 450 nM | > 10000 nM
3 | CSCC[C@H](NC(=O)[C@H](Cc1ccccc1)NC(=O)[C@H](Cc1cnc[nH]1)NC(=O)CNC(=O)[C@@H](NC(=O)[C@H](CCCN=C(N)N)NC(=O)[C@H](Cc1c[nH]c2ccccc12)NC(=O)[C@H](CCC(N)=O)NC(=O)[C@H](CC(N)=O)NC(=O)CNC(=O)[C@H](CC(C)C)NC(=O)[C@H](CO)NC(=O)[C@H](CCC(N)=O)NC(=O)[C@@H]1CCC(=O)N1)C(C)C)C(N)=O [CAS_31362-50-2] ([pGlu]QSLGNQWRVGHFM-NH2) | 7100 nM | 3200 nM | > 10000 nM
4 | CCCNC(=O)[C@H](CC(C)C)NC(=O)[C@H](Cc1cnc[nH]1)NC(=O)CNC(=O)[C@@H](NC(=O)[C@H](C)NC(=O)[C@H](Cc1c[nH]c2ccccc12)NC(=O)[C@H](CCC(N)=O)NC(=O)[C@H](N)Cc1ccccc1)C(C)C [DPhe6-Bn(6-13)propylamide] | 1900 nM | 6 nM | 4600 nM
5 | COC(=O)[C@H](CC(C)C)NC(=O)[C@H](Cc1cnc[nH]1)NC(=O)CNC(=O)[C@@H](NC(=O)[C@H](C)NC(=O)[C@H](Cc1c[nH]c2ccccc12)NC(=O)[C@H](CCC(N)=O)NC(=O)[C@H](N)Cc1ccccc1)C(C)C [DPhe6-Bn(6-13)methylester] | 5300 nM | 10 nM | 7700 nM
6 | CCCCNC(=O)[C@H](CC(C)C)NC(=O)[C@H](Cc1cnc[nH]1)NC(=O)[C@@H](C)NC(=O)[C@@H](NC(=O)[C@H](C)NC(=O)[C@H](Cc1c[nH]c2ccccc12)NC(=O)[C@H](CCC(N)=O)NC(=O)[C@H](N)Cc1ccc(O)cc1)C(C)C [DTyr6,DAla11-Bn(6-13)butylamide] | 5300 nM | 6 nM | 2300 nM
7 | CCCCCCNC(=O)[C@H](CC(C)C)NC(=O)[C@H](Cc1cnc[nH]1)NC(=O)CNC(=O)[C@@H](NC(=O)[C@H](C)NC(=O)[C@H](Cc1c[nH]c2ccccc12)NC(=O)[C@H](CCC(N)=O)NC(=O)[C@H](N)Cc1ccccc1)C(C)C [DPhe6-Bn(6-13)hexylamide] | 3200 nM | 100 nM | > 10000 nM
8 | CC(C)C[C@H](NC(=O)[C@H](CC(C)C)NC(=O)[C@@H](Cc1c[nH]c2ccccc12)NC(=O)[C@H](Cc1ccccc1)NC(=O)[C@@H](Cc1c[nH]c2ccccc12)NC(=O)[C@H](CCC(N)=O)NC(=O)[C@H](CCC(N)=O)NC(=O)[C@@H]1CCCN1C(=O)[C@H](CCCCN)NC(=O)[C@@H]1CCCN1C(=O)[C@H](N)CCCN=C(N)N)C(N)=O [Substance P,[DArg1,DTrp7,9,Leu11]] (H-[dR]PKPQQ[dW]F[dW]LL-NH2) | > 10000 nM | 11300 nM | 4100 nM
9 | CC(C)[C@H](NC(=O)[C@H](C)NC(=O)[C@H](Cc1c[nH]c2ccccc12)NC(=O)[C@H](Cc1cnc[nH]1)NC(=O)CCc1ccccc1)C(=O)N[C@H](C)C(=O)N[C@@H](Cc1cnc[nH]1)C(=O)N1CCC[C@@H]1CN[C@@H](Cc1ccccc1)C(N)=O [CAS_l] (Hydrocinnamoyl-HWAV[dA]H-{dProψ(CH2NH)PheNH2}) | – | 0.74 nM | > 10000 nM
10 | CSCC[C@H](NC(=O)[C@H](CC(C)C)NC(=O)[C@H](Cc1cnc[nH]1)NC(=O)CNC(=O)[C@@H](NC(=O)[C@H](C)NC(=O)[C@H](Cc1c[nH]c2ccccc12)NC(=O)[C@H](Cc1cnc[nH]1)NC(=O)[C@H](CC(N)=O)NC(=O)CN)C(C)C)C(N)=O [GRP-10,frog] | > 10000 nM | 130 nM | > 10000 nM

More lines, in order of falling Ki [3], values ahead:

Row | Ki [1] | Ki [2] | Ki [3] | Molecule
11 | > 10000 nM | 42 nM | 2700 nM | CC(C)C[C@@H](CN[C@@H](Cc1ccc(Cl)cc1)C(N)=O)NC(=O)[C@H](Cc1c[nH]cn1)NC(=O)CNC(=O)[C@@H](NC(=O)[C@H](C)NC(=O)[C@H](Cc1c[nH]c2ccccc12)NC(=O)[C@H](CCC(N)=O)NC(=O)[C@H](N)Cc1ccccc1)C(C)C [DPhe6,Leu13,Psi(CH2NH),Cpa14-Bn(6-14)]
12 | 2300 nM | > 10000 nM | 2500 nM | CSCC[C@H](NC(=O)[C@@H](Cc1c[nH]c2ccccc12)NC(=O)[C@@H](Cc1c[nH]c2ccccc12)NC(=O)[C@H](Cc1ccccc1)NC(=O)[C@@H](Cc1c[nH]c2ccccc12)NC(=O)[C@H](CCC(N)=O)NC(=O)[C@H](CCC(N)=O)NC(=O)[C@H]1CCCN1)C(N)=O [Substance P(4-11),[Dpro4,Dtrp7,9,10]] (H-[dP]QQ[dW]F[dW][dW]M-NH2)
13 | > 10000 nM | 430 nM | 2300 nM | CC(C)C[C@H](NC(=O)[C@H](CC(C)C)NC(=O)[C@@H](Cc1ccccc1)NC(=O)CNC(=O)[C@@H](NC(=O)[C@H](C)NC(=O)[C@H](Cc1c[nH]c2ccccc12)NC(=O)[C@H](CCC(N)=O)NC(=O)[C@@H](Cc1ccccc1)NC(=O)CNC(=O)[C@H](CC(C)C)NC(=O)[C@H](CCCN=C(N)N)NC(=O)[C@H](CCC(N)=O)NC(=O)[C@@H]1CCC(=O)N1)C(C)C)C(N)=O [DPhe6,12,Leu14-Bn]
14 | > 10000 nM | > 10000 nM | 1900 nM | CSCC[C@H](NC(=O)[C@H](CC(C)C)NC(=O)[C@@H](Cc1ccccc1)NC(=O)CNC(=O)[C@@H](NC(=O)[C@H](C)NC(=O)[C@H](Cc1c[nH]c2ccccc12)NC(=O)[C@H](CCC(N)=O)NC(=O)[C@H](CC(N)=O)NC(=O)CNC(=O)[C@H](CC(C)C)NC(=O)[C@H](CCCN=C(N)N)NC(=O)[C@H](CCC(N)=O)NC(=O)[C@@H]1CCC(=O)N1)C(C)C)C(N)=O [Dphe12-Bn]
15 | 3100 nM | 31 nM | 460 nM | CSCC[C@H](NC(=O)[C@H](Cc1ccccc1)NC(=O)[C@H](Cc1c[nH]cn1)NC(=O)CNC(=O)[C@@H](NC(=O)[C@H](C)NC(=O)[C@H](Cc1c[nH]c2ccccc12)NC(=O)[C@H](CC(C)C)NC(=O)[C@@H]1CCC(=O)N1)[C@@H](C)O)C(N)=O [CAS_125988]
16 | > 10000 nM | – | 440 nM | CSCC[C@H](NC(=O)[C@H](CC(C)C)NC(=O)[C@H](Cc1c[nH]cn1)NC(=O)CNC(=O)[C@@H](NC(=O)[C@H](C)NC(=O)[C@H](Cc1c[nH]c2ccccc12)NC(=O)[C@H](Cc1c[nH]cn1)NC(=O)[C@H](CC(N)=O)NC(=O)CNC(=O)[C@H](CCCN=C(N)N)NC(=O)[C@@H]1CCCN1C(=O)[C@H](Cc1ccc(O)cc1)NC(=O)[C@H](CCSC)NC(=O)[C@H](CCCCN)NC(=O)[C@@H](NC(=O)[C@H](CC(C)C)NC(=O)[C@@H](NC(=O)[C@@H](NC(=O)CNC(=O)CNC(=O)CNC(=O)[C@H](C)NC(=O)[C@@H]1CCCN1C(=O)[C@H](CC(C)C)NC(=O)[C@@H]1CCCN1C(=O)[C@@H](N)C(C)C)[C@@H](C)O)C(C)C)[C@@H](C)O)C(C)C)C(N)=O [CAS_93755-85-2]
17 | 2800 nM | > 10000 nM | 220 nM | CC(C)[C@@H]1NC(=O)[C@H](CCCCN)NC(=O)[C@@H](Cc2c[nH]c3ccccc23)NC(=O)[C@H](Cc2ccc(O)cc2)NC(=O)[C@H](NC(=O)[C@H](N)Cc2ccc3ccccc3c2)CSSC[C@@H](C(=O)N[C@@H](Cc2ccc3ccccc3c2)C(N)=O)NC1=O [H-Nal-cyclo[DCys-Tyr-DTrp-Lys-Val-Cys]-Nal-NH2] (H-[d2Nal][dC]Y[dW]KVC[2Nal]-NH2; disulfide 2-7)
18 | 5300 nM | 3 nM | 210 nM | H-EGGGPQWAVGHFM-NH2 [PG-L]
19 | 2100 nM | 240 nM | 47 nM | CSCC[C@H](NC(=O)[C@H](Cc1ccccc1)NC(=O)[C@H](CO)NC(=O)CNC(=O)[C@@H](NC(=O)[C@H](C)NC(=O)[C@H](Cc1c[nH]c2ccccc12)NC(=O)[C@H](CC(C)C)NC(=O)[C@@H]1CCC(=O)N1)C(C)C)C(N)=O [NSC_5748287]
20 | > 10000 nM | 2 nM | 14 nM | CSCC[C@H](NC(=O)[C@H](CC(C)C)NC(=O)[C@H](Cc1cnc[nH]1)NC(=O)CNC(=O)[C@@H](NC(=O)[C@H](C)NC(=O)[C@H](Cc1c[nH]c2ccccc12)NC(=O)[C@H](CCC(N)=O)NC(=O)[C@H](N)Cc1ccccc1)C(C)C)C(N)=O [DPhe6-Bn[6-14)]
21 | 6900 nM | 2 nM | 13 nM | CSCC[C@H](NC(=O)[C@H](Cc1ccccc1)NC(=O)[C@H](Cc1c[nH]cn1)NC(=O)CNC(=O)[C@@H](NC(=O)[C@H](C)NC(=O)[C@H](Cc1c[nH]c2ccccc12)NC(=O)[C@H](CCC(N)=O)NC(=O)[C@@H]1CCCN1C(=O)[C@@H](NC(=O)[C@@H]1CCC(=O)N1)C(C)C)C(C)C)C(N)=O [CAS_29451-71-6] ([pGlu]VPQWAVGHFM-NH2)
